Molecules are shown by their SMILES. Where two headings read alike, the source gives them in different places.

Broadly, the IC50 is the concentration that inhibits the measured activity by half.

The subject of this experiment is HT-1080 cells. Kind of experiment: Cellular dose response assay, HT-1080 with and without Fer-1. Particulars: for Selectivity: ferroptosis selectivity, IC50 with Fer-1 / IC50; for IC50: Table 10. The experiment is classed as cell-based, human. The text has this:
HT-1080 (human [Homo sapiens] […] fibrosarcoma), A-673 (human [Homo sapiens] […] Ewing's sarcoma), and SK-HEP-1 (human [Homo sapiens] […] hepatic adenocarcinoma), cells were obtained from ATCC. Huh7 (human [Homo sapiens] […] hepatocellular carcinoma), HLF (human [Homo sapiens] […] hepatocellular carcinoma), HepG2 (human [Homo sapiens] […] hepatocellular carcinoma), cells were obtained from the Cancer Cell Bank at Columbia University Irving Medical Center. HT-1080, A-673, Huh-7, and HLF cells were grown in Dulbecco's Modified Eagle Medium (DMEM) supplemented with 10% heat inactivated fetal bovine serum (HI-FBS), 1% non-essential amino acids, and 1% penicillin streptomycin. HepG2 and SK-HEP-1 cells were grown in Eagle's Minimum Essential Medium (EMEM) supplemented with 10% HI-FBS, and 1% penicillin-streptomycin. All cells were cultured at 37° C. and 5% CO2.
HT-1080, HepG2, Huh7, HLF, and SK-HEP-1 cells were seeded into opaque white 384-well plates at 1500 cells per well then incubated at 37° C. with 5% CO2 overnight. The next day, compounds of interest were dissolved in DMSO and 12-point 2-fold dilution series were prepared with and without Fer-1. Cells were treated in triplicate (final DMSO concentration of 0.4% in all wells, including DMSO-only control wells) and incubated for a further 48 hours at 37° C. and 5% CO2. Cell viability was evaluated using CellTiter-Glo (Promega G7573) and luminescence was recorded on a Victor 5 plate reader. Data were analyzed in GraphPad Prism 9 and error bars represent standard deviation values for three technical replicates in a representative experiment.

The mark [1] stands for this setting: with Fer-1, read-out: IC50 (μM) HT1080 + Fer-1.
[2] abbreviates: without Fer-1, read-out: IC50 (μM) HT1080.

`CC(C)(COC(=O)CCl)NC(=O)c1nn(Cc2cc(Cl)cc(Cl)c2)c2ccc(-c3ccc(N4CCOCC4)c(Cl)c3)cc12` [QW-980]: the Selectivity was found to be 1.5. Also, the IC50 under setting [1] amounted to 8.4 µM. Moreover, under setting [2], the IC50 is 5.5 µM.

The compound `CCOc1ccc(-c2ccc3c(C(=O)NC(C)(C)COC(=O)CCl)nn(Cc4cc(Cl)cc(Cl)c4)c3c2)cc1Cl` [QW-983] showed a Selectivity of 8.7. Moreover, the IC50 under setting [1] was 19.2 µM. Also, the IC50 under setting [2] is 2.2 µM.

As to `CSc1ccc(-c2ccc3c(C(=O)NC(C)(C)COC(=O)CCl)nn(Cc4cc(Cl)cc(Cl)c4)c3c2)cc1Cl` [QW-984], the Selectivity was greater than 53. For the same compound, the IC50 under setting [1] is greater than 40 µM. The half-inhibitory concentration (IC50) under setting [2] stood at 0.75 µM.

Take `CCCOc1ccc(-c2ccc3c(C(=O)NC(C)(C)COC(=O)CCl)nn(Cc4cc(Cl)cc(Cl)c4)c3c2)cc1Cl` [QW-987]: the Selectivity is listed as greater than 55. The IC50 under setting [1] is greater than 40 µM. For the same compound, the IC50 under setting [2] amounted to 0.72 µM.

On to `CC(C)(COC(=O)CCl)NC(=O)c1nn(Cc2cc(Cl)cc(Cl)c2)c2cc(-c3ccc(N4CCOCC4)cc3)ccc12` [QW-988], for which the Selectivity is 6.7. The IC50 under setting [1] turned out to be 19.5 µM. Further, under setting [2], the IC50 is 2.9 µM.

Take `CC(C)(COC(=O)CCl)NC(=O)c1nn(Cc2cc(Cl)cc(Cl)c2)c2cc(-c3ccc(OC(F)(F)F)c(Cl)c3)ccc12` [QW-991]: the Selectivity is 32.0. Further, under setting [1], the IC50 stood at 21.1 µM. The IC50 under setting [2] was determined as 0.66 µM.

Take `COC(=O)c1ccc(-c2ccc3c(C(=O)NC(C)(C)COC(=O)CCl)nn(Cc4cc(Cl)cc(Cl)c4)c3c2)cc1Cl` [QW-992]: the Selectivity is on record as 7.5. Further, the IC50 under setting [1] stood at 23.3 µM. Also, the IC50 under setting [2] amounted to 3.1 µM.

`CC(C)(COC(=O)CCl)NC(=O)c1nn(Cc2cc(Cl)cc(Cl)c2)c2cc(-c3ccc(C(F)(F)F)c(Cl)c3)ccc12` [QW-995]: the Selectivity was determined as 1.1. In addition, under setting [1], the IC50 stood at 47.1 µM. For the same compound, the IC50 under setting [2] worked out at 42.3 µM.

In turn, `CC(C)Oc1c(Cl)cc(-c2ccc3c(C(=O)NC(C)(C)COC(=O)CCl)nn(Cc4cc(Cl)cc(Cl)c4)c3c2)cc1Cl` [QW-996] showed a Selectivity of 17.8. Besides, under setting [1], the IC50 came out at 12.8 µM. Also, the IC50 under setting [2] was found to be 0.72 µM.

On to `COc1c(Cl)cc(-c2ccc3c(C(=O)NC(C)(C)COC(=O)CCl)nn(Cc4cc(Cl)cc(Cl)c4)c3c2)cc1Cl` [QW-998], for which the Selectivity is reported as greater than 114.3. Moreover, the IC50 under setting [1] is greater than 40 µM. Besides, under setting [2], the IC50 was determined as 0.35 µM.

In the case of `CC(=O)OCC(C)(C)NC(=O)c1nn(Cc2cc(Cl)cc(Cl)c2)c2cc(-c3ccc(N4CCOCC4)c(Cl)c3)ccc12` [QW-999], the “ferroptosis induction / potency in HT-1080 cells, result in words” value (RSL3 as control) was “inactive in cellular assay”. Further, the IC50 under setting [1] was greater than 40 µM and the IC50 under setting [2] is greater than 40 µM.

Consider `CC(C)(COC(=O)C(Cl)Cl)NC(=O)c1nn(Cc2cc(Cl)cc(Cl)c2)c2cc(-c3ccc(N4CCOCC4)c(Cl)c3)ccc12` [QW-1000], for which the IC50 runs as follows: under setting [1], greater than 40 µM; under setting [2], greater than 40 µM.

In the case of `COC(=O)/C=C/C(=O)OCC(C)(C)NC(=O)c1nn(Cc2cc(Cl)cc(Cl)c2)c2cc(-c3ccc(N4CCOCC4)c(Cl)c3)ccc12` [QW-1001], the IC50 is, setting by setting: under setting [1], greater than 40 µM; under setting [2], greater than 40 µM.

For the compound `CC=CC(=O)OCC(C)(C)NC(=O)c1nn(Cc2cc(Cl)cc(Cl)c2)c2cc(-c3ccc(N4CCOCC4)c(Cl)c3)ccc12` [QW-1002], the IC50 reads like this: under setting [1], greater than 40 µM; under setting [2], greater than 40 µM.

Take `CC(C)(COC(=O)CBr)NC(=O)c1nn(Cc2cc(Cl)cc(Cl)c2)c2cc(-c3ccc(N4CCOCC4)c(Cl)c3)ccc12` [QW-1004]: the Selectivity was 2.3. Moreover, the IC50 under setting [1] came out at 8.9 µM. The IC50 under setting [2] was 3.8 µM.

For the compound `CC(C)(COC(=O)c1ccc(S(C)(=O)=O)c([N+](=O)[O-])c1)NC(=O)c1nn(Cc2cc(Cl)cc(Cl)c2)c2cc(-c3ccc(N4CCOCC4)c(Cl)c3)ccc12` [QW-1006], the IC50 was greater than 40 µM under setting [1] and greater than 40 µM under setting [2].

The values are drawn from patent US20250248979A1, “NOVEL GPX4 INHIBITORS AND USES THEREOF” (THE TRUSTEES OF COLUMBIA UNIVERSITY IN THE CITY OF NEW YORK, priority 2022, published 2025).
